This passage reports IC50 results from article PMC4774911, “Biochemical Screening of Five Protein Kinases from Plasmodium falciparum against 14,000 Cell-Active Compounds” (PLoS ONE, 2016).

Holding throughout (experiment): biochemical
In assay [1] the target is MINK1 (Homo sapiens, UniProt Q8N4C8).
Assay [2] concerns the target T1, ULK1 (Homo sapiens, UniProt O75385).
T1 sequence (O75385 1-1050): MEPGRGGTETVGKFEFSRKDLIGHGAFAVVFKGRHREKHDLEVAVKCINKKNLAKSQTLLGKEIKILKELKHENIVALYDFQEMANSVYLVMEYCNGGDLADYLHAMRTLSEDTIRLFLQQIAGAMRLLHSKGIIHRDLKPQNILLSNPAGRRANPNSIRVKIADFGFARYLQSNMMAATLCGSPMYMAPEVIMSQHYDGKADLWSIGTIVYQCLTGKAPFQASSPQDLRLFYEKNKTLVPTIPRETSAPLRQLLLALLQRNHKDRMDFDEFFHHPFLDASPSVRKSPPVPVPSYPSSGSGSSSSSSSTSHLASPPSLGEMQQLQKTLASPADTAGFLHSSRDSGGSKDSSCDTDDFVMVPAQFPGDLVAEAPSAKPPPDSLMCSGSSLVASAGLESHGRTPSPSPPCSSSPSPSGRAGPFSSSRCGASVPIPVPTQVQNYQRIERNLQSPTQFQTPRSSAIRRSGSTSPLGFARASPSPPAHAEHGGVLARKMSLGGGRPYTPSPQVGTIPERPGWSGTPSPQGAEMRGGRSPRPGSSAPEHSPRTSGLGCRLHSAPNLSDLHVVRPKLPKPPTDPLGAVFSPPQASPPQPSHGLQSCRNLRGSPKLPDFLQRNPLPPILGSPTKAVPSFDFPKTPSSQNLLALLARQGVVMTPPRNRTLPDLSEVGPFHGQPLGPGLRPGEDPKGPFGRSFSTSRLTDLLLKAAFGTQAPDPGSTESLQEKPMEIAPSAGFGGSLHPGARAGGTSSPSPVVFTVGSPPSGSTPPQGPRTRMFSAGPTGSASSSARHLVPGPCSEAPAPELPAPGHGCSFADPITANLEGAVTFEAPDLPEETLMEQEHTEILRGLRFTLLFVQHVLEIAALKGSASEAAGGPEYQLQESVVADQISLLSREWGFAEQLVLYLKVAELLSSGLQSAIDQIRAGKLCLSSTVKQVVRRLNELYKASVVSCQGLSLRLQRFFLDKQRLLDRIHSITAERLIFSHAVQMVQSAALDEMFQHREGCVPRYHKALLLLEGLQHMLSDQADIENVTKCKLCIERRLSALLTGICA

In assay [3] the target is T2, PIP4K2B (Homo sapiens, UniProt P78356).
T2 sequence (P78356 1-416): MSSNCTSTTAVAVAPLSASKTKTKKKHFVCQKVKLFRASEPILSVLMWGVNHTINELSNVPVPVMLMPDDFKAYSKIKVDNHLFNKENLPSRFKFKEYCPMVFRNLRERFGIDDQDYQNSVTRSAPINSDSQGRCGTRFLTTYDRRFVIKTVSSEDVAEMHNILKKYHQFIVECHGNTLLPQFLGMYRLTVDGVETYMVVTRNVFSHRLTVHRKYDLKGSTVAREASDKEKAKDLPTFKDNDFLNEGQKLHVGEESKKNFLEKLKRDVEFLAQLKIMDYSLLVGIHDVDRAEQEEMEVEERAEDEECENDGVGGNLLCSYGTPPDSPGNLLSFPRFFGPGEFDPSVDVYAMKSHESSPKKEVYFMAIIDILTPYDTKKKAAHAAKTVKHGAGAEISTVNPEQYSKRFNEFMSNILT

Assay [4] addresses MAP3K11 (Homo sapiens, UniProt Q16584).
Assay [5] concerns the target MAST3 (Homo sapiens, UniProt O60307).
In assay [6] the target is T3, TAOK3 (Homo sapiens, UniProt Q9H2K8).
T3 sequence (Q9H2K8 1-898): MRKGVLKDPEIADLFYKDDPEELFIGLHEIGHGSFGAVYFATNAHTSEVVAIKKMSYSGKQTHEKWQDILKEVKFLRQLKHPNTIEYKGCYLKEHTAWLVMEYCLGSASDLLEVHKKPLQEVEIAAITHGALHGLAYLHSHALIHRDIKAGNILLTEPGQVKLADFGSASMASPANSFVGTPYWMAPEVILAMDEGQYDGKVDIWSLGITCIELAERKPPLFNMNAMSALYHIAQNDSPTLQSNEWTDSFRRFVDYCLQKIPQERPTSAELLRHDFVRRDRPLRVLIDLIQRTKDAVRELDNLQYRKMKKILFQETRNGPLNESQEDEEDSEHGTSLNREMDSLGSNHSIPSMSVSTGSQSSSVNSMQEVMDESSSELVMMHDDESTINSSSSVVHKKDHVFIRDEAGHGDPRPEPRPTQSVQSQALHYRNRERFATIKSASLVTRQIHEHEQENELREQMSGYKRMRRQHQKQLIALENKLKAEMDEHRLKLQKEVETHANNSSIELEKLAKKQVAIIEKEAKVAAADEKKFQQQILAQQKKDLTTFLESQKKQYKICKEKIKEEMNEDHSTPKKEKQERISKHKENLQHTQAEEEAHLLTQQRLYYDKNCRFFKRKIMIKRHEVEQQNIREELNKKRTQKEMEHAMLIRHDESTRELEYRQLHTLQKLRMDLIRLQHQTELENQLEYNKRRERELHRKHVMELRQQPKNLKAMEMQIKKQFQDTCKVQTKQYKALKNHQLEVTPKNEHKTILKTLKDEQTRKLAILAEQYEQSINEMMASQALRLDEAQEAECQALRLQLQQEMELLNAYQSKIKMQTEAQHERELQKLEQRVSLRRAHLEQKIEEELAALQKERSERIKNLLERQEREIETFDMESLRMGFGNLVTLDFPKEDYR

“And” between values parts separate entries of the source, which are not always exact repeats. Equal entries are not always repeated.

Sequence of MAP3K11 (Q16584 whole entry): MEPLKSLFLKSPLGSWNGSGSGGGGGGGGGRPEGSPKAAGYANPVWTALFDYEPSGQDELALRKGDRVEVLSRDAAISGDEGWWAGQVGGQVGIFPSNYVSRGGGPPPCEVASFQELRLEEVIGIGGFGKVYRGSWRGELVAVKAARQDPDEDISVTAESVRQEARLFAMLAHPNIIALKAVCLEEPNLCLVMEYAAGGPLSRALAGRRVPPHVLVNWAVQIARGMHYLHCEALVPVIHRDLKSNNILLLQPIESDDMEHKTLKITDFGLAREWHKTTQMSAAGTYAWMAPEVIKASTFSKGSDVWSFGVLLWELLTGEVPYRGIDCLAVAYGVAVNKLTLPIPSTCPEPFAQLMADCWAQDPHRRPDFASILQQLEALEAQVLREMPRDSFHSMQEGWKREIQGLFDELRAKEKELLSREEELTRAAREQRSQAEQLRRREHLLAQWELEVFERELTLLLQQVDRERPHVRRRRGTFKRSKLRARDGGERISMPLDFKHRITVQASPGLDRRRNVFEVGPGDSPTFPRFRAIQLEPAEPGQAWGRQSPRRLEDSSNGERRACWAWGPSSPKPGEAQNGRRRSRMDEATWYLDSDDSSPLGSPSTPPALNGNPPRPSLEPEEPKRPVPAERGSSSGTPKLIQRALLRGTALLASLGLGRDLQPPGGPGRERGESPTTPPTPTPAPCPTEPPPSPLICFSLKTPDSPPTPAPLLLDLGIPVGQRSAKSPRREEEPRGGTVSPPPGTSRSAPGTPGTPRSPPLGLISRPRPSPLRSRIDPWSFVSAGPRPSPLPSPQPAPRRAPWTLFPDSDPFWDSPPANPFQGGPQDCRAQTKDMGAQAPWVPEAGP
Sequence of MAST3 (O60307 whole entry): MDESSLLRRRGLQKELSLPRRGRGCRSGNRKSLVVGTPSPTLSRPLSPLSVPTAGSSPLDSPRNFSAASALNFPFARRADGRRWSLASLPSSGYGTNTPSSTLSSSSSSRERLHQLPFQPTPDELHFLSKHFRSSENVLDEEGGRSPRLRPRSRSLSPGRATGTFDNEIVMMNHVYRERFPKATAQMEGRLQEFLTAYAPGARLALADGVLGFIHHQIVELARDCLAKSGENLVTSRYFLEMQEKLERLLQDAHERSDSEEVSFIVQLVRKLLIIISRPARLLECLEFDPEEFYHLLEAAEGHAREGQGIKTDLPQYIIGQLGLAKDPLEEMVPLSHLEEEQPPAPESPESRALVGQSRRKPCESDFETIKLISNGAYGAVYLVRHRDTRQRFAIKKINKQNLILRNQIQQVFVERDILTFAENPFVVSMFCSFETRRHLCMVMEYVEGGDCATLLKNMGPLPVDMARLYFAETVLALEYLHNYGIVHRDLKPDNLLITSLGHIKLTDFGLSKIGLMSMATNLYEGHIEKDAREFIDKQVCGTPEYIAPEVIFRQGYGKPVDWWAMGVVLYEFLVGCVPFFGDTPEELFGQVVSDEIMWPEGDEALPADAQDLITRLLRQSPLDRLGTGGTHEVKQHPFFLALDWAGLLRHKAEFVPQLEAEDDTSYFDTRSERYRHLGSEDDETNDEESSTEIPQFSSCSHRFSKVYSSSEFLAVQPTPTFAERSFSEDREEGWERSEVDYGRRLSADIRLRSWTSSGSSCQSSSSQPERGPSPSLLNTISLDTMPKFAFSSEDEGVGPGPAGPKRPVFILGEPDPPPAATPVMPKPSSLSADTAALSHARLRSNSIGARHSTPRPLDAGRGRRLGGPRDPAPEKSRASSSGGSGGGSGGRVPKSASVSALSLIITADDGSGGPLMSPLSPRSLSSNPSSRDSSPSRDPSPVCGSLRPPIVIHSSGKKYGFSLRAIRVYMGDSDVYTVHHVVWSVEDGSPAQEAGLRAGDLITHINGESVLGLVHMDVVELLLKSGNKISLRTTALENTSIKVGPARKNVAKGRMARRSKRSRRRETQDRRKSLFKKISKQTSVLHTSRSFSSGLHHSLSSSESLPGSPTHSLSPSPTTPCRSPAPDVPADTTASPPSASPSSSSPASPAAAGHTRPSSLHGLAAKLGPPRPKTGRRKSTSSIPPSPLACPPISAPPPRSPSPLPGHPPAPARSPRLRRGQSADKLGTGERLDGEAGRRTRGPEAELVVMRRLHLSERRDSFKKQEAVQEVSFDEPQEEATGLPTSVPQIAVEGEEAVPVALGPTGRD
Sequence of MINK1 (Q8N4C8 whole entry): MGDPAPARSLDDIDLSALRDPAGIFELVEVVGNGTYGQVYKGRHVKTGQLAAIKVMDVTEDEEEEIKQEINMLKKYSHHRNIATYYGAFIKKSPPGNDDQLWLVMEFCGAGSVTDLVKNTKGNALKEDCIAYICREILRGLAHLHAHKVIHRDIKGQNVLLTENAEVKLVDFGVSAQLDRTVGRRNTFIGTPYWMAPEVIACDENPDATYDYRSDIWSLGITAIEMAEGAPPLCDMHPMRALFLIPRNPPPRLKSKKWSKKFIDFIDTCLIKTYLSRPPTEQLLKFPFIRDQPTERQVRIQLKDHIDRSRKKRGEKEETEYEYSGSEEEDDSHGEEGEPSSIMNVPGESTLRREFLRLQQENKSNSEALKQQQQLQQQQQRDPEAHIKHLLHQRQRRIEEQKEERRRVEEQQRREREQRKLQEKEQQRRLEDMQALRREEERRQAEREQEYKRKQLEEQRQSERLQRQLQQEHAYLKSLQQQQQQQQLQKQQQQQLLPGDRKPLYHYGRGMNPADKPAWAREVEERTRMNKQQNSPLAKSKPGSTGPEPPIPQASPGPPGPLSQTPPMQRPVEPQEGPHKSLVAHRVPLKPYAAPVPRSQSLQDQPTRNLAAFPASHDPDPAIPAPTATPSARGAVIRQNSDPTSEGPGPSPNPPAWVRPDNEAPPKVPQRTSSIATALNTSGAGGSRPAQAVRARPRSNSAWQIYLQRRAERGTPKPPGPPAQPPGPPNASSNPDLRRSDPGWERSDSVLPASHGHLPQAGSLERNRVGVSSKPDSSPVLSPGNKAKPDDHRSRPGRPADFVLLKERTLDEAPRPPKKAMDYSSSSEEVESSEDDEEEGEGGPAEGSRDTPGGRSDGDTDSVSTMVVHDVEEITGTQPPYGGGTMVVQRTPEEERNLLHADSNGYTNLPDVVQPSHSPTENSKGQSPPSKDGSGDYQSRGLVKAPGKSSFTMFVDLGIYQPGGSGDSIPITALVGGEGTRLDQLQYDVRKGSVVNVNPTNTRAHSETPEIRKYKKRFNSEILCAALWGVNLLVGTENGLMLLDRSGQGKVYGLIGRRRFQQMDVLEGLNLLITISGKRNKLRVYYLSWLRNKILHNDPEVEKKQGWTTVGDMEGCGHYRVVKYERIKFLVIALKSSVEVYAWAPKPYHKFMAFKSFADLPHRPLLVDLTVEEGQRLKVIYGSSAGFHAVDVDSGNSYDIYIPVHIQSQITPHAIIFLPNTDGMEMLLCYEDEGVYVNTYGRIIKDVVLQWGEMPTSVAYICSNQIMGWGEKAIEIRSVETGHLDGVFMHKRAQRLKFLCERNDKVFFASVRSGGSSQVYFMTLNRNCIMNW

On to `CN1CCN(c2ccc(Nc3ncc(C#N)c(Nc4ccccc4C(N)=O)n3)cc2)CC1.Cl` [TCMDC-134116], for which the IC50 in assay [1] was 290 nM; in assay [2], 160 nM; in assay [3] it was 1600 nM and 1000 nM; in assay [4], 89 nM; in assay [5], 160 nM.
`Cl.NCC1(c2nc(-c3ccc(Cl)c(O)c3)c(-c3ccncc3)[nH]2)CCCCC1` [TCMDC-141154]: the IC50 in assay [1] was 1400 nM; in assay [2], above 20000 nM; in assay [6], 1800 nM and 910 nM; in assay [5] it was above 20000 nM.
As for `CN(C)CC(O)COc1ccc(Nc2ncc([N+](=O)[O-])c(Nc3ccccc3O)n2)cc1.O=C(O)C(F)(F)F` (stereo not drawn) [TCMDC-141399], the half-inhibitory concentration (IC50) in assay [3] is 970 nM; in assay [4], 1400 nM and 630 nM; in assay [6] it was above 20000 nM.
